Data reported in patent US20250289827A1, “MORPHIC FORMS OF A MUTANT BRAF DEGRADER AND METHODS OF MANUFACTURE THEREOF” (C4 THERAPEUTICS, INC., priority 2022, published 2025).

Legend:
Format in all cases: physicochemical
[1] = Characterization of salt forms (XRPD, DSC, TGA, KF, HPLC, NMR/IC)
Protocol: Salt Forms identified in the investigation (Table 16) were further characterized by XRPD, DCS, TGA, KF, HPLC and ^1H NMR/IC (Table 19).
About 419 mg of sodium salt Form F was obtained as off-white solid in 76% yield.

[2] = Bulk stability of sodium salt Form F (1 week stress); conditions: for Bulk (XRPD) / Color / Purity, Bulk (HPLC): Solid state; for Decrease in chemical purity: one week stress at 25° C./92% RH
Protocol: Sodium salt Form F was placed at 25° C./92% RH in an open container, at 40° C./75% RH in an open container and at 60RC in a closed container for 1 week. Samples after the stress were characterized by XRPD and HPLC and inspected for color change.

[3] = Solubility in aqueous pH buffers and bio-relevant fluids at 37° C.; conditions: for XRPD 24 h: residual solid
Protocol: Solubility of the Form B and sodium salt Form F was measured in 7 aqueous pH buffers and bio-relevant fluids including pH 1.2 HCl solution (0.2N), pH 4.5 acetate buffer (50 mM), pH 6.8 phosphate buffer (50 mM), pH 2.0 SGF, pH 6.5 FaSSIF-v1, pH 5.0 FeSSIF-v1 and water at 37° C. for 2 h and 24 h, respectively.
Accurate 20 mg of the Form B was weighed into a 20 mL glass vial. Then, 10 mL of solubility medium was added. The sodium salt Form F amount used was equivalent to 20 mg anhydrous form. Obtained suspensions were stirred at 37° C. at 400 rpm and sampled at 2 hours and at 24 hours, respectively. The samples were centrifuged at 37° C. at 4,000 rpm for 4 min. Supernatants were analyzed by HPLC and pH meter for solubility and pH value, respectively. Residual solids (wet cakes) from the 24 hours samples were also characterized by XRPD to determine physical form.

[4] = Hygroscopicity of sodium salt Form F by DVS at 25° C.; conditions: for Form and crystallinity change after DVS test: DVS 25° C.
Protocol: Hygroscopicity of sodium salt Form F was evaluated by dynamic vapor sorption (DVS) test at 25° C.

[5] = Photostability evaluation of sodium salt Form F
[6] = 25° C./92% RH, open container, 1 week
[7] = 40° C./75% RH, open container, 1 week
[8] = 60° C., tight container, 1 week
[9] = FaSSIF-v1, pH 6.5, 37° C., LOQ: 1.5 μg/mL
[10] = pH 1.2 HCl solution (0.2N), 37° C.
[11] = pH 4.5 acetate buffer (50 mM), 37° C.
[12] = pH 4.5 acetate buffer (50 mM), 37° C., LOQ: 1.5 μg/mL
[13] = pH 6.8 phosphate buffer (50 mM), 37° C.
[14] = pH 6.8 phosphate buffer (50 mM), 37° C., LOQ: 1.5 μg/mL
[15] = Solid state, photo (visible light, 1.2 million lux-hrs)

Compound: CCN(C)S(=O)(=O)[N-]c1ccc(F)c(Oc2ccc3ncn([C@H]4COC5(CCN(C(=O)CC6(O)CCN(c7cc8c(cc7F)c(N7CCC(=O)NC7=O)nn8C)CC6)CC5)C4)c(=O)c3c2)c1C#N.[Na+] [Compound 1 sodium salt Form F]
- Crystallinity by XRPD ([1]; Table 20, batch of Example 24): Medium crystallinity
- DSC, heating rate [10° C./min]: Tonset ([1]; Table 20, batch of Example 24): Tonset 194.7 °C
- Melting enthalpy ([1]; Table 20, batch of Example 24): 32.4 J/g
- Residual solvent by ^1H NMR, weight % ([1]; Table 20, batch of Example 24): No detectable residual solvent
- Water content by Karl Fischer ([1]; Table 20, batch of Example 24): 2.5 equiv. water
- Water content by Karl Fischer, weight % ([1]; Table 20, batch of Example 24): 4.6 % by weight
- Melting onset (DCS, ° C.) ([1]; Tonset, listed as Sodium salt Form F): Tonset 197.7 °C
- Weight loss (TGA) ([1]; at 100° C.): 2.7% at 100° C.,
- Weight loss (TGA) ([1]; at 100° C.-170° C.): 3.2% at 100° C.-
- Weight loss in % at ° C. (Thermogravimetry, heating rate [10° C./min]) ([1]; at 180° C., Table 20, batch of Example 24): 4.8% at 180 °C
- Water content (by KF) ([1]; listed as Sodium salt Form F): 6.2% by % by weight
- Crystallinity change ([2]; 60° C. in a tight/closed container, 1 week): slight crystallinity decrease
- Bulk (XRPD) [2, 6]: No form change
- Color [2, 6]: No change of color
- Purity, Bulk (HPLC) [2, 6]: 97.7%
- Bulk (XRPD) [2, 7]: No form change
- Color [2, 7]: No change of color
- Purity, Bulk (HPLC) [2, 7]: 98.5%
- Bulk (XRPD) [2, 8]: No form change, slight crystallinity decrease
- Color [2, 8]: No change of color
- Purity, Bulk (HPLC) [2, 8]: 98.9%
- Decrease in chemical purity ([2]; listed as Form F): 1.2%
- Decrease in chemical purity ([2]; listed as Sodium salt Form F): about 1.2%
- Morphic form stability (form change) ([2]; one week, 25° C./92% RH open, 40° C./75% RH open, 60° C. tight container): no form change
- Disproportionation after solubility test (IC) [3]: partially disproportionated
- pH of supernatant 24 h ([3]; FaSSIF-v1, pH 6.5, 37° C.): (pH = 6.7)
- Solubility 2 h [3, 9]: <LOQ
- Solubility 24 h [3, 9]: <LOQ
- Solubility 2 h ([3]; FeSSIF-v1, pH 5.0, 37° C.): 6.7 µg/mL
- Solubility 24 h ([3]; FeSSIF-v1, pH 5.0, 37° C.): 10.4 µg/mL
- pH of supernatant 24 h ([3]; FeSSIF-v1, pH 5.0, 37° C.): (pH = 5.1)
- Solubility 2 h ([3]; SGF, pH 2.0, 37° C.): 10.9 µg/mL
- Solubility 24 h ([3]; SGF, pH 2.0, 37° C.): 8.6 µg/mL
- pH of supernatant 24 h ([3]; SGF, pH 2.0, 37° C.): (pH = 2.2)
- Solubility 24 h ([3]; Water, 37° C.): 73.0 µg/mL
- pH of supernatant 24 h ([3]; Water, 37° C.): (pH = 8.7)
- Solubility 2 h ([3]; Water, 37° C., LOQ: 1.5 μg/mL): 98.8 µg/mL
- pH dependence of solubility ([3]; aqueous media, 37° C.): pH dependent solubility
- Solubility compared with Form B ([3]; especially pH 1.2 HCl solution, pH 4.5 acetate buffer, SGF, FeSSIF-v1, 37° C.): better solubility than that of the Form B
- Solubility 2 h [3, 10]: 19.3 µg/mL
- Solubility 24 h [3, 10]: 51.1 µg/mL
- pH of supernatant 24 h [3, 10]: (pH = 1.0)
- Crystallinity change after solubility test ([3]; pH 1.2 HCl solution and SGF): crystallinity decrease
- pH of supernatant 24 h [3, 11]: (pH = 4.6)
- Solubility 2 h [3, 12]: <LOQ
- Solubility 24 h [3, 12]: 3.7 µg/mL
- pH of supernatant 24 h [3, 13]: (pH = 6.9)
- Solubility 2 h [3, 14]: <LOQ
- Solubility 24 h [3, 14]: <LOQ
- XRPD 24 h ([3]; FaSSIF-v1, pH 6.5, 37° C.): No form change
- XRPD 24 h ([3]; FeSSIF-v1, pH 5.0, 37° C.): No form change
- XRPD 24 h ([3]; Water, 37° C.): No form change
- XRPD 24 h [3, 11]: No form change
- XRPD 24 h [3, 13]: No form change
- 1st desorp. Weight % change ([4]; 0% RH, 25° C.): 0.0%
- 2nd sorp. Weight % change ([4]; 0% RH, 25° C.): 0.0%
- 1st desorp. Weight % change ([4]; 10% RH, 25° C.): 0.6%
- 2nd sorp. Weight % change ([4]; 10% RH, 25° C.): 0.5%
- 1st desorp. Weight % change ([4]; 20% RH, 25° C.): 1.2%
- 2nd sorp. Weight % change ([4]; 20% RH, 25° C.): 0.8%
- 1st desorp. Weight % change ([4]; 30% RH, 25° C.): 2.2%
- 2nd sorp. Weight % change ([4]; 30% RH, 25° C.): 1.2%
- 1st desorp. Weight % change ([4]; 40% RH, 25° C.): 3.7%
- 1st sorp. Weight % change ([4]; 40% RH, 25° C.): 3.1%
- 2nd desorp. Weight % change ([4]; 40% RH, 25° C.): 3.9%
- 2nd sorp. Weight % change ([4]; 40% RH, 25° C.): 1.5%
- 1st desorp. Weight % change ([4]; 50% RH, 25° C.): 5.0%
- 1st sorp. Weight % change ([4]; 50% RH, 25° C.): 3.3%
- 2nd desorp. Weight % change ([4]; 50% RH, 25° C.): 5.2%
- 2nd sorp. Weight % change ([4]; 50% RH, 25° C.): 2.2%
- 1st desorp. Weight % change ([4]; 60% RH, 25° C.): 6.1%
- 1st sorp. Weight % change ([4]; 60% RH, 25° C.): 3.4%
- 2nd desorp. Weight % change ([4]; 60% RH, 25° C.): 6.2%
- 2nd sorp. Weight % change ([4]; 60% RH, 25° C.): 3.5%
- 1st desorp. Weight % change ([4]; 70% RH, 25° C.): 7.5%
- 1st sorp. Weight % change ([4]; 70% RH, 25° C.): 3.7%
- 2nd desorp. Weight % change ([4]; 70% RH, 25° C.): 7.7%
- 2nd sorp. Weight % change ([4]; 70% RH, 25° C.): 5.8%
- 1st desorp. Weight % change ([4]; 80% RH, 25° C.): 9.7%
- 1st sorp. Weight % change ([4]; 80% RH, 25° C.): 4.1%
- 2nd desorp. Weight % change ([4]; 80% RH, 25° C.): 9.9%
- 2nd sorp. Weight % change ([4]; 80% RH, 25° C.): 7.9%
- 1st desorp. Weight % change ([4]; 90% RH, 25° C.): 15.5%
- 1st sorp. Weight % change ([4]; 90% RH, 25° C.): 7.0%
- 2nd desorp. Weight % change ([4]; 90% RH, 25° C.): 16.4%
- 2nd sorp. Weight % change ([4]; 90% RH, 25° C.): 13.1%
- 1st desorp. Weight % change ([4]; 95% RH, 25° C.): 16.7%
- 1st sorp. Weight % change ([4]; 95% RH, 25° C.): 16.7%
- 2nd desorp. Weight % change ([4]; 95% RH, 25° C.): 19.6%
- 2nd sorp. Weight % change ([4]; 95% RH, 25° C.): 19.6%
- Form and crystallinity change after DVS test [4]: no changes in crystallinity
- Form and crystallinity change after DVS test ([4]; listed as sodium salt Form F): no form change and no crystallinity decrease
- Hygroscopicity ([4]; below 80% RH, 25° C.): slightly hygroscopic
- Water uptake ([4]; from 80% RH to 95% RH at 25° C.): 12.6%
- Chemical purity decrease after photostability evaluation [5]: about 1%
- Bulk (XRPD) [5, 15]: No form change
- Color [5, 15]: No change of color
- Purity, Bulk (HPLC) [5, 15]: 97.9%
- Purity, Control (HPLC) ([5]; photo test, control sample): 98.9%
